From paper PMC10247784, “Physiological activation of human and mouse bitter taste receptors by bile acids” (Communications Biology, 2023)
Values joined by “and” are separate entries in the source; they are usually repeats but may differ in a detail not shown here. Equal entries are not always repeated.

Molecular target: T1, human TAS2R14 (Homo sapiens, UniProt Q9NYV8)
T1 construct: expressed in transfected cells; host or cells: HEK293T-Gα16gust44
T1 sequence (Q9NYV8 1-317): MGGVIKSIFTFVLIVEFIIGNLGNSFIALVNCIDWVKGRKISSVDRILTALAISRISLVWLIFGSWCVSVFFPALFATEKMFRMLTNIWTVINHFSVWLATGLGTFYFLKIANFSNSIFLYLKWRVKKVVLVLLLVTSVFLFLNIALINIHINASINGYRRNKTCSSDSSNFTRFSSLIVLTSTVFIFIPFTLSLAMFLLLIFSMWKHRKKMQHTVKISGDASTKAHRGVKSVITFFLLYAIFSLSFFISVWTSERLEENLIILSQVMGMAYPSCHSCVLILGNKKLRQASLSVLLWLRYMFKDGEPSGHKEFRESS
Experiment: Calcium imaging assay (FLIPR), HEK293T-Gα16gust44 cells transfected with human TAS2R14
Type: cell-based
Details: for RLU: TAS2R14 trace
Description: This set of bile acids was chosen because of their commercial availability in high purities, their diversity within the class of bile acids and their previous detection and quantitation in human blood. Stock solutions were prepared in DMSO.
As basal growth medium for the HEK293T-Gα16gust44 cell line[17],[59] served Dulbecco’s modified eagle medium (DMEM) (Thermo Fisher Scientific, Darmstadt, Germany) supplemented with 10 % fetal bovine serum (Sigma-Aldrich, Steinheim, Germany), 2 mM L-glutamine (Sigma-Aldrich, Steinheim, Germany), 100 units/ml penicillin (Sigma Aldrich, Steinheim, Germany) and 100 µg/ml streptomycin (Sigma Aldrich, Steinheim, Germany). Growth conditions were 37 °C, 5 % CO2 and saturated air-humidity[60].
HEK293T-Gα16gust44 cells were seeded on poly-D-lysine (10 µg/ml) coated 96-well plates to reach a confluence of 40-60 % the next day. For transient transfection 150 ng of plasmid DNA containing the receptor of interest and 0.3 µl lipofectamine 2000 (Thermo Fisher Scientific, Darmstadt, Germany) per well were used and transfection took place according to the manual of lipofectamine 2000. […] The empty vector DNA (mock) was transfected as negative control[14],[41].
Cells were loaded using the calcium-sensitive fluorescent dye Fluo-4-AM (Abcam, Cambridge, Great Britain) in the presence of 2.5 mM probenecid (Sigma-Aldrich, Steinheim, Germany) the day after transfection[13],[41]. 1 h after loading, cells were washed with C1 buffer using a BioTek Cell Washer, incubated in the dark for half an hour and washed again. For automated agonist application and measurement of fluorescence changes, a FLIPR^TETRA device (Molecular Devices, San José, United States) was used. Viability of cells was tested by application of 100 nM Somatostatin 14 (Bachem, Bubendorf, Switzerland)[42].
Measured data were negative control corrected by subtracting the signal of the mock-transfected cells and exported to Microsoft Excel using the FLIPR software ScreenWorks 4.2. In Microsoft Excel software, standardization of maximum fluorescence intensities to the basal fluorescence and normalization to the buffer-only control was done to calculate the relative fluorescence changes (ΔF/F).
Initial screening experiments performed in duplicate wells were confirmed by at least one replication and representative traces were selected for display. All dose-response relationships were determined by three independent experiments (biological replicates) performed in duplicates (technical replicates). Threshold concentrations, defined as lowest substance concentrations leading to statistically significant elevated fluorescence changes in receptor-transfected cells compared with empty vector-transfected cells, were determined using SigmaPlot with Student’s t-test to evaluate statistical significance (p < 0.01).

Efficacy = maximal amplitude (ΔF/F) (TAS2R14, bile acids, mean): 0.2451
Efficacy (maximal amplitude ΔF/F), individual data points (TAS2R14, bile acids, single replicates, listed as GCA): 0.2248 and 0.2913 and 0.2191
Δ F/F (TAS2R14, conc. 0,01 mM): 0.002092
Δ F/F (TAS2R14, conc. 0,1 mM): 0.02639
Δ F/F (TAS2R14, conc. 0,03 mM): 0.01392
Δ F/F (TAS2R14, conc. 0,3 mM): 0.06546
Δ F/F (TAS2R14, conc. 0,001 mM): 0.007446
Δ F/F (TAS2R14, conc. 1 mM): 0.2451
Δ F/F (TAS2R14, conc. 0,003 mM): 0.001619
RLU (Time (s) 0): 0 RLU
RLU (Time (s) 2 (Taurocholic Acid 2.016)): -6.072 RLU
RLU (Time (s) 4 (Taurocholic Acid 4.016)): -9.1 RLU
RLU (Time (s) 6 (Taurocholic Acid 6.016)): -27.0469 RLU
RLU (Time (s) 8 (Taurocholic Acid 8.016)): -30.0405 RLU
RLU (Time (s) 12 (Taurocholic Acid 12.016)): -37.9898 RLU
RLU (Time (s) 14 (Taurocholic Acid 14.016)): -36.9901 RLU
RLU (Time (s) 16 (Taurocholic Acid 16.016)): -51.9041 RLU
RLU (Time (s) 18 (Taurocholic Acid 18.016)): -34 RLU
RLU (Time (s) 18.797 (Chenodeoxycholic Acid 18.765)): -73.9735 RLU
RLU (Time (s) 20.797 (Chenodeoxycholic Acid 20.781)): -100.333 RLU
RLU (Time (s) 22.797 (Chenodeoxycholic Acid 22.781)): -58.0996 RLU
RLU (Time (s) 24.797 (Chenodeoxycholic Acid 24.781)): -11.7946 RLU
RLU (Time (s) 26.797 (Chenodeoxycholic Acid 26.781)): -4.829 RLU
RLU (Time (s) 28.797 (Chenodeoxycholic Acid 28.781)): -12.95 RLU
RLU (Time (s) 30.797 (Chenodeoxycholic Acid 30.781)): 25.2324 RLU
RLU (Time (s) 32.797 (Chenodeoxycholic Acid 32.781)): 58.2752 RLU
RLU (Time (s) 34.797 (Chenodeoxycholic Acid 34.781)): 56.7501 RLU
RLU (Time (s) 36.797 (Chenodeoxycholic Acid 36.781)): 94.7938 RLU
RLU (Time (s) 38.797 (Chenodeoxycholic Acid 38.781)): 109.443 RLU
RLU (Time (s) 40.797 (Chenodeoxycholic Acid 40.781)): 134.729 RLU
RLU (Time (s) 42.797 (Chenodeoxycholic Acid 42.781)): 165.138 RLU
RLU (Time (s) 44.797 (Chenodeoxycholic Acid 44.781)): 223.768 RLU
RLU (Time (s) 46.797 (Chenodeoxycholic Acid 46.781)): 253.169 RLU
RLU (Time (s) 48.797 (Chenodeoxycholic Acid 48.781)): 284.606 RLU
RLU (Time (s) 50.797 (Chenodeoxycholic Acid 50.781)): 322.537 RLU
RLU (Time (s) 52.797 (Chenodeoxycholic Acid 52.781)): 365.455 RLU
RLU (Time (s) 54.797 (Chenodeoxycholic Acid 54.781)): 404.11 RLU
RLU (Time (s) 56.797 (Chenodeoxycholic Acid 56.781)): 424.679 RLU
RLU (Time (s) 58.797 (Chenodeoxycholic Acid 58.781)): 448.405 RLU
RLU (Time (s) 60.797 (Chenodeoxycholic Acid 60.781)): 513.015 RLU
RLU (Time (s) 62.797 (Chenodeoxycholic Acid 62.781)): 520.328 RLU
RLU (Time (s) 64.797 (Chenodeoxycholic Acid 64.781)): 518.587 RLU
RLU (Time (s) 66.797 (Chenodeoxycholic Acid 66.781)): 566.626 RLU
RLU (Time (s) 68.797 (Chenodeoxycholic Acid 68.781)): 571.358 RLU
RLU (Time (s) 70.797 (Chenodeoxycholic Acid 70.781)): 583.853 RLU
RLU (Time (s) 72.797 (Chenodeoxycholic Acid 72.781)): 622.789 RLU
RLU (Time (s) 74.797 (Chenodeoxycholic Acid 74.781)): 701.49 RLU
RLU (Time (s) 76.797 (Chenodeoxycholic Acid 76.781)): 688.581 RLU
RLU (Time (s) 78.797 (Chenodeoxycholic Acid 78.781)): 706.104 RLU
RLU (Time (s) 80.797 (Chenodeoxycholic Acid 80.781)): 737.493 RLU
RLU (Time (s) 82.797 (Chenodeoxycholic Acid 82.781)): 736.745 RLU
RLU (Time (s) 84.797 (Chenodeoxycholic Acid 84.781)): 766.635 RLU
RLU (Time (s) 86.797 (Chenodeoxycholic Acid 86.781)): 784.026 RLU
RLU (Time (s) 88.797 (Chenodeoxycholic Acid 88.781)): 835.93 RLU
RLU (Time (s) 90.797 (Chenodeoxycholic Acid 90.781)): 879.758 RLU
RLU (Time (s) 92.797 (Chenodeoxycholic Acid 92.781)): 905.014 RLU
RLU (Time (s) 94.797 (Chenodeoxycholic Acid 94.781)): 871.313 RLU
RLU (Time (s) 96.797 (Chenodeoxycholic Acid 96.781)): 875.012 RLU
RLU (Time (s) 98.797 (Chenodeoxycholic Acid 98.781)): 900.527 RLU
RLU (Time (s) 100.797 (Chenodeoxycholic Acid 100.781)): 907.622 RLU
RLU (Time (s) 102.797 (Chenodeoxycholic Acid 102.781)): 872.83 RLU
RLU (Time (s) 104.797 (Chenodeoxycholic Acid 104.781)): 919.127 RLU
RLU (Time (s) 106.797 (Chenodeoxycholic Acid 106.781)): 885.988 RLU
RLU (Time (s) 108.797 (Chenodeoxycholic Acid 108.781)): 899.974 RLU
RLU (Time (s) 110.797 (Chenodeoxycholic Acid 110.781)): 929.16 RLU
RLU (Time (s) 112.797 (Chenodeoxycholic Acid 112.781)): 924.683 RLU
RLU (Time (s) 114.797 (Chenodeoxycholic Acid 114.781)): 936.987 RLU
RLU (Time (s) 116.797 (Chenodeoxycholic Acid 116.781)): 927.195 RLU
RLU (Time (s) 118.797 (Chenodeoxycholic Acid 118.781)): 907.689 RLU
RLU (Time (s) 120.797 (Chenodeoxycholic Acid 120.781)): 904.35 RLU
RLU (Time (s) 122.797 (Chenodeoxycholic Acid 122.781)): 945.812 RLU
RLU (Time (s) 124.797 (Chenodeoxycholic Acid 124.781)): 947.759 RLU
RLU (Time (s) 126.797 (Chenodeoxycholic Acid 126.781)): 937.139 RLU
RLU (Time (s) 128.797 (Chenodeoxycholic Acid 128.781)): 931.219 RLU
RLU (Time (s) 130.797 (Chenodeoxycholic Acid 130.781)): 907.598 RLU
RLU (Time (s) 132.797 (Chenodeoxycholic Acid 132.781)): 937.794 RLU
RLU (Time (s) 134.797 (Chenodeoxycholic Acid 134.781)): 944.802 RLU
RLU (Time (s) 136.797 (Chenodeoxycholic Acid 136.781)): 914.908 RLU
RLU (Time (s) 137.562 (Taurocholic Acid 137.563, Chenodeoxycholic Acid 137.546)): 923.636 RLU
RLU (Time (s) 143.578 (Taurocholic Acid 143.563, Chenodeoxycholic Acid 143.546)): 874.438 RLU
RLU (Time (s) 149.578 (Taurocholic Acid 149.563, Chenodeoxycholic Acid 149.546)): 827.247 RLU
RLU (Time (s) 155.578 (Taurocholic Acid 155.563, Chenodeoxycholic Acid 155.546)): 796.558 RLU
RLU (Time (s) 161.578 (Taurocholic Acid 161.563, Chenodeoxycholic Acid 161.546)): 810.447 RLU
RLU (Time (s) 167.578 (Taurocholic Acid 167.563, Chenodeoxycholic Acid 167.546)): 731.625 RLU
RLU (Time (s) 173.578 (Taurocholic Acid 173.563, Chenodeoxycholic Acid 173.546)): 735.471 RLU
RLU (Time (s) 179.578 (Taurocholic Acid 179.563, Chenodeoxycholic Acid 179.546)): 706.541 RLU
RLU (Time (s) 191.578 (Taurocholic Acid 191.563, Chenodeoxycholic Acid 191.546)): 666.973 RLU
RLU (Time (s) 197.578 (Taurocholic Acid 197.563, Chenodeoxycholic Acid 197.546)): 650.688 RLU
RLU (Time (s) 209.578 (Taurocholic Acid 209.563, Chenodeoxycholic Acid 209.546)): 612.527 RLU
RLU (Time (s) 221.578 (Taurocholic Acid 221.563, Chenodeoxycholic Acid 221.546)): 516.97 RLU
RLU (Time (s) 233.578 (Taurocholic Acid 233.563, Chenodeoxycholic Acid 233.546)): 445.674 RLU
RLU (Time (s) 239.578 (Taurocholic Acid 239.563, Chenodeoxycholic Acid 239.546)): 433.467 RLU
RLU (Time (s) 245.578 (Taurocholic Acid 245.563, Chenodeoxycholic Acid 245.546)): 428.616 RLU
RLU (Time (s) 293.578 (Taurocholic Acid 293.563, Chenodeoxycholic Acid 293.546)): 228.532 RLU
RLU (Time (s) 299.578 (Taurocholic Acid 299.563, Chenodeoxycholic Acid 299.546)): 222.955 RLU
RLU (Time (s) 305.578 (Taurocholic Acid 305.563, Chenodeoxycholic Acid 305.546)): 237.423 RLU
RLU (Time (s) 311.578 (Taurocholic Acid 311.563, Chenodeoxycholic Acid 311.546)): 201.505 RLU
RLU (Time (s) 317.578 (Taurocholic Acid 317.563, Chenodeoxycholic Acid 317.546)): 204.947 RLU
RLU (Time (s) 323.578 (Taurocholic Acid 323.563, Chenodeoxycholic Acid 323.546)): 189.257 RLU
RLU (Time (s) 329.578 (Taurocholic Acid 329.563, Chenodeoxycholic Acid 329.546)): 164.774 RLU
RLU (Time (s) 335.578 (Taurocholic Acid 335.563, Chenodeoxycholic Acid 335.546)): 171.566 RLU
RLU (Time (s) 341.578 (Taurocholic Acid 341.563, Chenodeoxycholic Acid 341.546)): 143.607 RLU
RLU (Time (s) 347.578 (Taurocholic Acid 347.563, Chenodeoxycholic Acid 347.546)): 131.554 RLU
RLU (Time (s) 353.578 (Taurocholic Acid 353.563, Chenodeoxycholic Acid 353.546)): 173.027 RLU
RLU (Time (s) 359.578 (Taurocholic Acid 359.563, Chenodeoxycholic Acid 359.546)): 156.135 RLU
Activation threshold concentration TAS2R14 (lowest concentration with significantly increased fluorescence vs empty vector (p < 0.01)): 100 µM
SMILES: C[C@H](CCC(=O)NCC(=O)O)[C@H]1CC[C@H]2[C@@H]3[C@H](O)C[C@@H]4C[C@H](O)CC[C@]4(C)[C@H]3C[C@H](O)[C@]12C [Glycocholic Acid, glycocholic acid]
